According to US4788069A (The Coca-Cola Company, priority 1987, dated 1988):
Residues, ends and D or L forms follow the SMILES beside them.

What was measured:
[1] = cited from earlier work; for times sweeter than sucrose: prior art value, weight to weight stated for formula 1
[2] = Sweetness relative to sucrose, compounds tasted in aqueous solution; settings: for Sweetness (x sucrose w/w): Table I, diastereomeric mixtures of L-aspartyl-3-(bicycloalkyl) D,L-alanine methyl esters
Procedure: The 2R-endo- and 2R-exo-fenchyl esters described by Fujino, cited above, have sweetness of high intensity.
In Table I, the reported sweetness is measured for diastereomeric mixtures. The sweetness of each optically pure compound according to the invention will differ from the sweetness of the mixture.
The sweetness values of each compound shown in Table I correspond to a mixture of optical isomers, whose maximum theoretical number of isomers is listed. In order to evaluate the sweetness of different isomeric forms, four pairs of optical isomers of one of the novel compounds were synthesized. Each pair differed from the others only in the stereochemistry of the bicyclic camphor ring.

## CC12CCC(C1)C(C)(C)C2OC(=O)C(NC(=O)C(N)CC(=O)O)c1ccccc1 (stereo not drawn) [2R, exo-fenchyl ester]
[1]; prior art fenchyl esters
  sweetness intensity (in words): high sweetness intensities

## COC(=O)C(CC1CC2CCC1C2)NC(=O)[C@@H](N)CC(=O)O (stereo partly drawn) [(R,S)endo norbornyl, L-Aspartyl-D,L-(endo-R,S-norbornyl)-3-alanine methyl ester]
[2]
  Sweetness (x sucrose w/w): 290 x sucrose w/w

## COC(=O)C(CC1CC2CCC1C2)NC(=O)C(N)CC(=O)O [(R,S)exo norbornyl]
[2]
  Sweetness (x sucrose w/w): 200 x sucrose w/w

## COC(=O)C(NC(=O)[C@@H](N)CC(=O)O)C(=O)OC1C2(C)CCC(C2)C1(C)C (stereo partly drawn) [L-aspartyl-2-amino malonyl methyl fenchyl diester]
[1]
  times sweeter than sucrose: 20,000 times sweeter than sucrose

## COC(=O)[C@H](Cc1ccccc1)NC(=O)[C@@H](N)CC(=O)O [L-aspartyl-L-phenylalanine methyl ester] (H-Asp-Phe-OMe)
[1]
  times sweeter than sucrose: about 180 times sweeter than sucrose

## COC(=O)C(CC1CC2CCC1C2)NC(=O)[C@@H](N)CC(=O)O (stereo partly shown) [norbornyl]
[2]
  Sweetness (x sucrose w/w): 225 x sucrose w/w

## (alpha-carboxy) glycyl-3-norbornylalanine methyl ester
[2]; formula 4 tasted in aqueous solution
  sweetness (in words): intensely sweet
